Measurements from ChEMBL document CHEMBL3507680, “University of Dundee, Gates Library screen for HepG2 cell viability”.

Assay: Human HepG2 cell viability assay in 384 well format
Format: toxicity, cell-based
Parameters: dose 125 nL, time 70.5 hour; concentration not given beside the values
Conditions: HepG2 cells, read-out: Inhibition

In order of rising cytotoxicity at 70.5 h:
1. CC(C)CN1CC[C@@H]2[C@@H]1CCN2S(=O)(=O)c1cccs1  -18%
2. Cc1noc(C)c1CNC(=O)Nc1ccc(N2CCOC2=O)cc1  -17.5%
3. CCN(Cc1cnn(C)c1)C(=O)c1ccc(C)c(N2CCNC2=O)c1  -17.2%
4. CC(C)c1nnc(NC(=O)CCc2cc(F)ccc2F)[nH]1  -16.3%
5. CN(Cc1cc2n(n1)CCCNC2)Cc1n[nH]c2c1CCC2  -13.3%
6. CCOC(=O)CC(C)Nc1nc(C2CCCC2)nc2c1cnn2C (centres undefined)  -12.8%
7. Cc1ccc(CN2C[C@H]3C[C@H](C(=O)NCC4CC4)N(C)[C@H]3C2)o1  -12.6%
8. O=C1NCC2(CCCN(Cc3ccc(Cl)s3)C2)Oc2ccccc21 (centres undefined)  -12.5%
9. CN(Cc1cccnc1)CC1CC12CCN(c1nncs1)CC2 (centres undefined)  -12.3%
10. Cc1cccc(CN2CCN(Cc3ccccc3)CC(O)C2)n1 (centres undefined)  -12.1%
11. CN1C[C@@H](n2cnc(-c3ccccc3)c2-c2nccn2C)C[C@H]1C(=O)O  -11.9%
12. O=C(c1cnccn1)N1CC[C@H]2C[C@@H](c3ccncn3)O[C@@H]2C1  -11.7%
13. O=C(c1ccc(-c2nc[nH]n2)cc1)N1CC[C@H](CO)[C@@H](O)C1  -10.8%
14. CN(CCc1ccccn1)C(=O)c1cn(CCN2CCNCC2)nn1  -10.7%
15. Cc1ncsc1CN1C[C@@H](O)[C@](O)(CNC(=O)c2ccccn2)C1  -10.6%
16. O=S(=O)(c1cncc(F)c1)N1CCSC2(CCCCC2)C1  -10.2%
17. O=C(c1ccccc1)N1CC2(CCNC2)OCc2ccccc21 (centres undefined)  -9.98%
18. O=C1[C@H]2CN(C(=O)[C@H]3CCCO3)C[C@H]2CN1CCN1CCCC1  -9.56%
19. Cc1cc(-c2c[nH]nc2C2CCCCN2C(=O)c2ccccc2)on1 (centres undefined)  -9.53%
20. CN(C)S(=O)(=O)N1CCCC1CC(=O)c1cccs1 (centres undefined)  -9.51%
21. Cc1ccccc1C(=O)N1Cc2c(Cn3ccnc3)nn(C)c2C1  -9.48%
22. CCC(=O)N1CCC[C@]2(C(=O)N(C)C)CN(c3ccccn3)C[C@@H]2C1  -9.46%
23. OC1=C2C(=Nc3n[nH]c(O)c3C2c2ccco2)CCC1 (centres undefined)  -9.2%
24. CS(=O)(=O)NCCNC(=O)c1ccc(OCc2ccccc2)nc1  -9.1%
25. COC1COC2(CCN(Cc3ccco3)CC2)C1 (centres undefined)  -8.76%
26. Cc1ccc(CNC2CCCc3c2cnn3Cc2ccccc2)s1 (centres undefined)  -8.41%
27. O=C(NC[C@H]1OC[C@@H](N(CC2CC2)CC2CC2)[C@@H]1O)Nc1ccccc1  -8.13%
28. Cc1cc(C(=O)N2C[C@H](CO)C[C@H](CN3CCOCC3)C2)nc(C)n1  -7.67%
29. Cn1ccnc1CN1CCN(CC2CC2)[C@@H]2CS(=O)(=O)C[C@@H]21  -7.65%
30. Cc1cccc(C(=O)N2C[C@@H]3OCCN(CCN4CCCC4)[C@@H]3C2)n1  -7.28%
31. CC(NC(N)=O)C(=O)NCc1cc(Br)ccc1F (centres undefined)  -7.15%
32. CC(C)n1cc(CN(C)C[C@@H]2CCCN3CCCC[C@H]23)cn1  -6.94%
33. CN(C)CCn1c2c(ccc1=O)CC(NC(=O)NC1CCCC1)CC2 (centres undefined)  -6.88%
34. CN(C)CCN1CCCC12CCN(C(=O)c1ccco1)CC2  -6.82%
35. O=C(CCC(F)(F)F)NCC1CCCS1 (centres undefined)  -6.67%
36. COCCNC(=O)c1cc2c(s1)CCN2S(C)(=O)=O  -6.66%
37. CC(Sc1nnc(C2CC2)n1CC(N)=O)c1ccc(F)c(Cl)c1 (centres undefined)  -6.61%
38. CN1CCN(Cc2cn3c(n2)CN(C2CCOCC2)CC3)CC1  -6.56%
39. Cc1cc(C)c(C(=O)N2CCOCC2c2c(C)n[nH]c2C)o1 (centres undefined)  -6.5%
40. Cc1nc(N(C)CCCc2nccn2C)c2c(C)nn(C)c2n1  -6.47%
41. CCN(CC)C1COc2c(cc(Br)c(C)c2C)C1=O (centres undefined)  -6.45%
42. FC(F)(F)C1CN(Cc2cccc(-c3ccccn3)c2)CCO1 (centres undefined)  -6.31%
43. COc1ccccc1N1CCCC(Nc2nccnc2C#N)C1 (centres undefined)  -6.29%
44. O=C(c1ccc(Cl)cc1)N1CCn2c(nn(-c3cccc(Cl)c3)c2=O)C1  -6.26%
45. CN(Cc1ccc(F)cc1)C(=O)Nc1cccnc1N1CCCC1  -6.22%
46. CCCNC(=O)c1[nH]nc(C2CC2)c1Br  -5.95%
47. CN(Cc1ccccc1)CC(O)Cn1cnc2c(cnn2C)c1=O (centres undefined)  -5.87%
48. CC(C)c1nc(C2CCCN(C(=O)c3ccc4nncn4c3)C2)no1 (centres undefined)  -5.81%
49. CCn1c(CN2CCCC2)nnc1C1CCN(Cc2ccc(C)o2)CC1  -5.38%
50. Cc1cc(NC(=O)NCC2CCN(C(C)C)C2)no1 (centres undefined)  -5.36%
51. Cc1nnsc1C(=O)N1C[C@H]2CC[C@@H]1CN(c1cnccn1)C2  -5.21%
52. N#Cc1nccnc1NC1CCN(c2ccccc2OC(F)F)C1 (centres undefined)  -5.2%
53. NCC1(c2cccc(C(F)(F)F)c2)CCCCC1  -4.79%
54. Cc1noc(C)c1CN1CCO[C@H]2CN(Cc3cnn(C)c3)C[C@H]21  -4.66%
55. O=C(c1ccccn1)N1CCCC(c2cc(C(F)F)n3ncnc3n2)C1 (centres undefined)  -4.56%
56. Cc1cc(C)c2c(c1)NC(=O)C2CC(=O)O (centres undefined)  -4.36%
57. c1coc(CNc2ncc3c(n2)C2(CCNC2)COC3)c1 (centres undefined)  -4.32%
58. CCc1nnc(Nc2cccc(C3CCN(C(=O)CO)CC3)n2)s1  -4.24%
59. COc1cc(C(=O)Nc2nc(C)no2)cc(Cl)c1OC  -3.51%
60. O=C1CCC2(CCCN(C(=O)C3CCCC3)C2)CN1CCc1c[nH]cn1 (centres undefined)  -2.97%
61. Nc1cc(-c2c[nH]nc2C2CCCN2S(=O)(=O)c2ccccc2)ccn1 (centres undefined)  -2.78%
62. O=C(c1csc(-c2ccccn2)n1)N1CCCC1Cn1cccn1 (centres undefined)  -2.56%
63. O=c1ccc2c([nH]1)CCC(NCc1ccncc1)C2 (centres undefined)  -2.51%
64. CO[C@H]1CC[C@H]2[C@H]1OCCN2C(=O)CC1=CCCCC1  -2.24%
65. CCS(=O)(=O)N1CCN(c2cc(-n3cnc(C)c3C)nc(C)n2)CC1  -2.19%
66. Cc1nc(N2CCN(c3ccccc3)CC2)c2c(n1)c(C)nn2C  -2.17%
67. Cc1nnc(N2CCCC3(CN(Cc4ccncc4)CCO3)C2)o1 (centres undefined)  -2.14%
68. CC(=O)N1CCN(CCNc2ncc(Br)cc2C)CC1  -1.98%
69. O=C(C1CCCC1)N1CCC(c2n[nH]c3nccnc23)CC1  -1.92%
70. CCc1nc(C2CCCN2C(=O)c2ccc(N(C)C)nn2)no1 (centres undefined)  -0.946%
71. COCC1COCCC12CCN(CCc1ccccc1)CC2 (centres undefined)  -0.938%
72. O=C(CCN1CCC(C(=O)c2cc(F)ccc2F)CC1)NC1CC1  -0.804%
73. CCC(=O)NCc1cc(Br)c(OC)c(OC)c1  -0.621%
74. CCN(CC)C1(Cc2cc(COC)on2)COC1  -0.489%
75. CS(=O)(=O)c1cc(Cl)cnc1C1CCN(C(=O)C2CC2)CC1  -0.478%
76. CC(C)C(O)CNC(=O)Nc1ccc(F)c(Cl)c1 (centres undefined)  -0.302%
77. O=S(=O)(NCCC(O)c1ccoc1)c1ccc(Cl)s1 (centres undefined)  -0.192%
78. O=C(Cc1ccccc1Cl)Nc1cc(N2CCCC2)ncn1  -0.171%
79. O=C1CCc2cc(C(=O)NCc3ccc(-n4cncn4)nc3)ccc2N1  -0.0283%
80. OCCN1CCN(CC2(O)CCCCC2)CC1  0.0783%
81. CC(C)c1nnc2n1CCN(C(=O)c1cc(Cl)c[nH]1)C2  0.408%
82. CCc1nc(CN(C)C2CCN(CCC(=O)N3CCCCC3)C2)no1 (centres undefined)  0.593%
83. CCN(CC)C(=O)CN1CCCC(c2nc(C)c3c(n2)N(C)CCC3)C1 (centres undefined)  0.707%
84. Cn1ccnc1Sc1ccc(N)cn1  0.97%
85. COc1ccccc1CNC(C)c1ccc2[nH]c(=O)[nH]c2c1 (centres undefined)  1.17%
86. CCOc1cc2c(cc1CNC(Cc1cccs1)c1nccs1)OCO2 (centres undefined)  1.33%
87. CN1CCOC(CNCc2coc(-c3ccccc3Cl)n2)C1 (centres undefined)  1.39%
88. Cc1nn(C)c(C)c1C1CCCN1CC(=O)Nc1ccc(Cl)cn1 (centres undefined)  2.19%
89. CCNC(=O)COc1ccc(C(=O)NC(C)CCc2ccco2)cc1 (centres undefined)  2.41%
90. COCc1nc(C(=O)NS(=O)(=O)c2c(C)c(C)cc(C)c2C)cs1  2.47%
91. Cn1c(=O)c2sccc2n(Cc2ccccc2)c1=O  2.6%
92. Cc1ccc(CN2CCc3[nH]nc(C(=O)N(C)C)c3C2)s1  3.17%
93. Cc1cnn(CC(C)NCc2csc(-c3ccco3)n2)c1 (centres undefined)  4.15%
94. CCn1c(Cn2cncn2)nnc1C1CCN(Cc2ccccn2)CC1  6.14%
95. Cc1nnsc1C(=O)NCCNS(=O)(=O)c1cccs1  6.87%
96. O=C(Cc1ccccn1)N1C[C@H]2CCC[C@@]2(COc2ccccn2)C1  6.94%
97. Clc1ccccc1OC1CN(CC2CCOC2)C1 (centres undefined)  8.25%
98. CCN(Cc1cccc2c1OCO2)C(=O)NC1CC1  8.97%
99. Cc1cc(CSCc2cc(C)on2)on1  12.2%
100. Cc1ccc(CCC(=O)N2CCOCC2c2ncon2)c(C)c1 (centres undefined)  13.3%
101. CCCc1nnc(N2CCN(c3ccccc3F)CC2)o1  13.5%
102. CNC(=O)C1(CCCc2ccccn2)CCN1Cc1coc(C)n1 (centres undefined)  14.6%
103. COc1cccc(CN2CCCC(c3nn(C)c4nccnc34)C2)c1 (centres undefined)  14.8%
104. CC(=O)N1CCC(c2n[nH]cc2-c2ccnc(N)c2)C1 (centres undefined)  15.7%
105. CSc1nc(C2CC2)nc(C)c1C(=O)NCc1ccco1  16.1%
106. COC(=O)c1sccc1NC(=O)C1CCCN1C(=O)c1ccco1 (centres undefined)  16.3%
107. COC(=O)CN(C(=O)c1ccco1)c1cccc(F)c1  16.3%
108. Cn1cc(CN2CCC3(CC2)CC(Nc2nccs2)CO3)cn1 (centres undefined)  16.9%
109. CN(C)C1CN(C(=O)Nc2cccc(OC(F)F)c2)C1  17.6%
110. Cc1ccc(-c2nc(CN3CCCC3Cn3cc(C)cn3)no2)cc1 (centres undefined)  23.6%
111. O=C(c1cc2cc(F)ccc2[nH]1)N1CCC(Nc2cccnn2)CC1  24.4%
112. c1nc(N2CCCC2)ncc1CN1CCCC(CN2CCCCC2)C1 (centres undefined)  24.4%
113. Cc1cc(C)n(CCCN(C)C(=O)C2COc3ccccc3C2)n1 (centres undefined)  26.5%
114. O=C(O)Cn1nc(C2CC2)c2c(-c3ccco3)ccnc21  30.2%
